Assay results taken from patent US4020111A, “Propynyloxy alkyl arene insecticides” (priority 1975, dated 1977).
Where “and” joins values, the source holds several entries; their conditions need not be identical. Equal entries are not always repeated.

Tests used:
mice [1] = test: synergism of acute toxicity of Dimetilan, GS 13005, Secobarbital and Methadone (intraperitoneal); format: in vivo, Swiss albino white male mice; details: for number of mice dead: 48 hours, of eight mice
Procedure, shortened: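 Male Swiss albino mice (5–6 weeks, 23–27 g), eight per dose; synergist in corn oil given i.p. 1 h before i.p. insecticide or drug (drugs in distilled water). Lethality recorded over at least 6 h; controls received corn oil plus agent alone.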

mice [2] = test: extension of Secobarbital sleeping time by synergists; format: in vivo, Swiss albino white male mice; details: Secobarbital 37 mg/K; for Relative Sleeping Time: treated/control
Procedure, shortened: (§1)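 Swiss albino male mice (~38 days, 25-30 g) given synergist at 74.0 or 110.0 mg/kg in corn oil 1 h before Secobarbital 37.0 mg/kg or Noludar 110.0 mg/kg in water. Sleeping time measured from drug dosing to righting-reflex recovery; relative sleeping time = treated ÷ drug-only control.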

mice [3] = test: acute toxicity of Dimetilan alone and of synergist alone (intraperitoneal); format: in vivo, Swiss albino white male mice; details: synergist alone 1000 mg/kg ip, 72 hours, of eight mice
Method: To determine the acute toxicity of dimetilan alone, eight dosage levels of Dimetilan, ranging from 4 to 32 mg per kg wer applied to eight, Swiss, albino, white, male mice per dosage level. The mice weighed approximately 23 to 27 grams and were five to size weeks old. The Dimetilan was administered intraperitoneally in 0.1 ml of corn oil one hour after the administration of the same dose of corn oil alone.
To determine the acute toxicity of the synergist alone, various synergists were administered intraperitoneally at a dose of 1000 mg/kg to each of a group of eight mice. The number of animals dead at the end of 72 hours is reported in the left hand column of Table XXXXVI.

mice [4] = test: extension of Noludar sleeping time by synergists; format: in vivo, Swiss albino white male mice; details: Noludar 110 mg/K, synergist 110 mg/K; for Relative Sleeping Time: treated/control
Procedure, shortened: as §1

[5] = system: German male cockroaches (Blatella Germanicus); test: topical application to thorax, 24 hour mortality of German male cockroaches; format: in vivo, German cockroach (Blatella Germanicus)
Method: The synergistic effect with mobam of synergist compounds I-B, II-H, II-K and IV-C is further illustrated by the 24 hour mortality data of German male cockroaches (Blatella Germanicus) shown in Table XXXX. The synergists and insecticide were diluted in acetone and applied in small droplets to the thorax of the insect. These doses of synergist alone gave zero percent insect mortality.
The synergistic effect with GS 13005 of compounds I-B, II-H, II-K, II-P, II-Q, II-R and IV-C is illustrated by the 24 hour mortality of German male cockroaches shown in Table XXXXI. These doses of synergist alone caused zero percent insect mortality.

[6] = system: Wilson strain house flies; format: in vivo, house fly (susceptible Wilson strain); details: for Contact Synergistic Ratio, Carbaryl (LC50 insecticide alone / LC50 with synergist): in vivo; for Contact Synergistic Ratio, Pyrolan (LC50 insecticide alone / LC50 with synergist): synergist to insecticide 5:1 by weight, 24 h
Procedure, shortened: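 Flies held at room temperature in glass jars coated with acetone-deposited insecticide film, alone or with synergist at 5:1 synergist:insecticide by weight; 10% sugar supplied.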

houseflies = test: percent kill with Diazinon, Table XXVII (strain not given); format: in vivo, housefly; details: Diazinon 5 + synergist 10 μg/fly, 1440 min
[7] = system: polyvalent resistant (CH strain) houseflies; test: whole plant or invertebrate; format: in vivo, housefly (CH strain); details: for percent kill after 24 hours: CH strain
Method: The effect of O-(2-propynyl) oximes with Dimetilan and with GS 13798 was obtained from tests on polyvalent resistant (CH strain) houseflies that had been chilled and to the dorsal region of which was applied an acetone solution of synergist and insecticide at a ratio of two to one. Duplicate tests were performed using 10 four to five-day old female houseflies per test. After dosage, the flies were put in a plastic petri dish with cotton soaked in a sugar-water solution. These doses of insecticide used without synergist caused 10-40% mortality.
(§2) In Table IX, and in the tables following it, the doses of topically applied insecticides and of synergists unless otherwise noted are expressed as micrograms per fly (μg/fly).
The effect of compounds II-C, II-D and II-E with Dimetilan and GS 13798 was determined, following the procedure of Example 5, from tests on polyvalent resistant (CH strain) houseflies. These doses of insecticide used without synergist caused 10-40% mortality.
(§3) The synergistic effect with GS 13005 of compounds I-A, I-B, I-D, I-E, I-F, I-G and I-I was determined from topical application tests to IN/WHO strain, Rutgers A strain and polyvalent CH strain houseflies using the procedures of Example 5. The percent kills of the IN/WHO strain flies after 24 hours are shown in Table XXVIII; of the Rutgers A strain, in Table XXIX; and of the polyvalent CH strain, in Table XXX. The doses of insecticide alone to the CH strain files caused 10-40% mortality.
(§4) The synergistic effect with Diazinon and GS 13005 of various of the benzyl 2-propynyl ethers identified in Tables II and IIa was determined by topical application tests on IN/WHO strain, and Rutgers A strain and polyvalent, resistant, CH strain houseflies using the procedures of Example 5. The percent kills after 24 hours of IN/WHO strain flies are shown in Table XXXI; of Rutgers A strain flies, in Table XXXII; and of CH strain flies, in Table XXXIII. The doses of insecticide alone to the CH strain flies caused 10-40% mortality.
The synergistic effect with pyrethrum of various synergist compounds was determined by topical application tests on polyvalent, resistant CH strain houseflies following the procedure of Example 5. Application of the insecticide alone caused 10-40% mortality.

[8] = system: Rutgers A strain house flies; test: topical application test, percent kill after 24 hours, Rutgers A strain; format: in vivo, house fly (resistant Rutgers A strain)
Method: as §2
The synergistic effect of O-(2-propynyl) oximes with mobam was determined from topical application tests on susceptible, female, IN/WHO strain house flies and from tests on resistant, female, Rutgers A strain house flies. The synergist and insecticide were dissolved in ACS Grade acetone in such quantities that a 1.0μ liter volume applied to the thorax of 3-to-5 day old CO2 -anesthetized female adult house flies contained the desired dosage. After being treated, the flies were confined, 10 to a plaster petri dish, with 3-5 dishes/treatment, and held for 24-hr. observation of mortality. Reconstituted skim milk on cotton dental wicks was provided during the holding period. The percent kills after 24 hours are shown in Table X for the IN/WHO strain and Table XI for the Rutgers A strain.
The synergistic effect of benzyl 2-propynyl ethers with mobam was determined from topical application tests on IN/WHO and Rutgers A strain houseflies, following the procedure of Example 5. The percent kills after 24 hours are shown in Table XIV for the IN/WHO strain and in Table XV for the Rutgers A strain.
The synergistic effect with Diazinon of compounds I-B, I-D, I-F, I-G, I-H and I-I, identified in Tables I and Ia, was determined from topical application tests on IN/WHO strain houseflies and on Rutgers A strain houseflies by the procedure of Example 5. The percent kills after 24 hours are shown in Table XXV for the IN/WHO strain and Table XXVI for the Rutgers A strain.
as §3, §4
The synergistic effect on IN/WHO strain flies and Rutgers A strain flies of compound IV-C with GS 13005 and with Diazinon was determined by the topical application procedure of Example 5. The percent kills of IN/WHO strain flies after 24 hours are shown in Tables XXXVI and XXXVII; the percent kills of Rutgers A strain flies are shown in Tables XXXVIII and XXXIX.

[9] = system: IN/WHO strain house flies; test: topical application test, percent kill after 24 hours, IN/WHO strain; format: in vivo, house fly (susceptible IN/WHO strain)
Procedure, shortened: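 Susceptible female IN/WHO house flies, 3–5 days old, CO2-anesthetized, received synergist plus insecticide in acetone (1.0 μL) on the thorax; doses in μg/fly. Flies held 10 per dish, 3–5 dishes/treatment, with skim milk; mortality (percent kill) read at 24 h.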

[10] = Dimetilan 8 mg/kg + synergist 240 mg/kg ip
[11] = GS 13005 71 mg/kg + synergist 213 mg/kg
[12] = synergist alone at doses of Table XXXXI
[13] = Methadone 32 mg/kg + synergist 215 mg/kg
[14] = Secobarbital 90 mg/kg + synergist 215 mg/kg

`C#CCOCc1ccc([N+](=O)[O-])cc1` [II-Q, 4-nitrobenzyl 2-propynyl ether] was tested, and the “number of mice dead” value (mice [1]; [10]) was 1, the “mice lethality (number dead)” value (mice [1]; [11]) was 6 and the “Mean Sleeping Time” value (mice [2]; synergist 74 mg/K) was 30 min. For the same compound, the “Relative Sleeping Time” value (mice [2]; synergist 74 mg/K) was 1.1, the “Mean Sleeping Time” value (mice [2]; synergist 110 mg/K) was 73 min and the “Relative Sleeping Time” value (mice [2]; synergist 110 mg/K) was 1.6. The “number of mice dead” value (mice [3]) was 7, the “Mean Sleeping Time” value (mice [4]) was 41 min and the “Relative Sleeping Time” value (mice [4]) was 2.1. The “insect mortality, synergist alone” value [5, 12] was “zero”.
With `C#CCOCc1ccccc1[N+](=O)[O-]` [II-P, 2-nitrobenzyl 2-propynyl ether] the “number of mice dead” value (mice [1]; [10]) was 0, the “mice lethality (number dead)” value (mice [1]; [11]) was 6 and the “mice lethality (number dead)” value (mice [1]; [13]) was 0. The “mice lethality (number dead)” value (mice [1]; [14]) was 0, the “Mean Sleeping Time” value (mice [2]; synergist 110 mg/K) was 46 min and the “Relative Sleeping Time” value (mice [2]; synergist 110 mg/K) was 1.0. For the same compound, the “number of mice dead” value (mice [3]) was 2, the “Mean Sleeping Time” value (mice [4]) was 44 min and the “Relative Sleeping Time” value (mice [4]) was 1.5. For the same compound, the “insect mortality, synergist alone” value [5, 12] was “zero”.
With `C#CCOCc1c(Cl)cccc1Cl` [II-H] the “number of mice dead” value (mice [1]; Dimetilan 8 mg/kg + synergist 80 mg/kg ip) was 0, the “number of mice dead” value (mice [1]; [10]) was 6 and the “mice lethality (number dead)” value (mice [1]; [11]) was 7. The “mice lethality (number dead)” value (mice [1]; [13]) was 4, the “mice lethality (number dead)” value (mice [1]; [14]) was 0 and the “Mean Sleeping Time” value (mice [2]; synergist 74 mg/K) was 44 min. The “Relative Sleeping Time” value (mice [2]; synergist 74 mg/K) was 1.4, the “Mean Sleeping Time” value (mice [2]; synergist 110 mg/K) was 51 min and the “Relative Sleeping Time” value (mice [2]; synergist 110 mg/K) was 2.1. The “number of mice dead” value (mice [3]) was 0, the “Contact Synergistic Ratio, Carbaryl (LC50 insecticide alone / LC50 with synergist)” value [6] was 300 and the “Contact Synergistic Ratio, Pyrolan (LC50 insecticide alone / LC50 with synergist)” value [6] was 40. For the same compound, the “Mean Sleeping Time” value (mice [4]) was 68 min, the “Relative Sleeping Time” value (mice [4]) was 2.2 and the “insect mortality, synergist alone” value ([5]; synergist alone at doses of Table XXXX) was “zero”. For the same compound, the “insect mortality, synergist alone” value [5, 12] was “zero”.
`C#CCON=Cc1ccc(OC)c(OC)c1` [I-A] was tested, and the percent kill (houseflies) was 45%, the “percent kill after 24 hours” value ([7]; Dimetilan 2 + synergist 4 μg/fly) was 100% and the “percent kill after 24 hours” value ([7]; GS 13005 1 + synergist 2 μg/fly) was 45%. The “percent kill after 24 hours” value ([7]; GS 13798 1 + synergist 2 μg/fly) was 65%, the “percent kill after 24 hours” value ([7]; Pyrethrum 2 + synergist 4 μg/fly) was 15% and the “Contact Synergistic Ratio, Carbaryl (LC50 insecticide alone / LC50 with synergist)” value [6] was 200. For the same compound, the “Contact Synergistic Ratio, Pyrolan (LC50 insecticide alone / LC50 with synergist)” value [6] was 30.
`CNC(=O)Oc1cccc2sccc12` [Mobam, 4-benzo(b) thienyl-N-methylcarbamate, reference compound] was tested, and the “percent kill after 24 hours” value ([8]; Mobam alone 0.15 μg/fly) was 0%, the “percent kill after 24 hours” value ([8]; Mobam alone 0.30 μg/fly) was 0% and the “percent kill after 24 hours” value ([8]; Mobam alone 0.40 μg/fly) was 7%. For the same compound, the “percent kill after 24 hours” value ([8]; Mobam alone 0.60 μg/fly) was 4%, the 24 hour mortality ([5]; Mobam alone, dose 0.12) was 10% and the 24 hour mortality ([5]; Mobam alone, dose 0.16) was 30%. The “percent kill after 24 hours” value ([9]; Mobam alone 0.05 μg/fly) was 0%, the “percent kill after 24 hours” value ([9]; Mobam alone 0.10 μg/fly) was “zero” and the “percent kill after 24 hours” value ([9]; Mobam alone 0.10 μg/fly, 1440 min) was 0%. The “percent mortality 24 hours” value ([9]; Mobam alone 0.13 μg/fly) was 0%, the “percent kill after 24 hours” value ([9]; Mobam alone 0.20 μg/fly, 1440 min) was 2% and the “percent mortality 24 hours” value ([9]; Mobam alone 0.50 μg/fly, 1440 min) was 83%. The “percent mortality 24 hours” value ([9]; Mobam alone 1.0 μg/fly, 1440 min) was 73% and 93% and the “change in lethality on doubling dose of mobam alone” value ([9]; mobam alone 0.05 to 0.10 mg/fly (so in the source)) was “no increase in lethality”.
In the case of `COc1nn(CSP(=S)(OC)OC)c(=O)s1` [GS 13005, S-((2-methoxy-5-oxo-Δ^2-1,3,4-thiadiazolin-4-yl)methyl) O,O-dimethyl phosphorodithioate, reference compound], the “mice lethality (number dead)” value (mice [1]; control: GS 13005 71 mg/kg in 0.1 ml corn oil) is reported as 5, the mortality at 1 µg/fly ([7]; Musca domestica, topical, 24 h, read-out: mortality, insecticide alone) is reported as 10 to 40% and the “percent kill after 24 hours” value ([8]; GS 13005 alone 1.0 μg/fly, 1440 min) is reported as 2%. For the same compound, the 24 hour mortality ([5]; GS 13005 alone, dose 0.08, 1440 min) was 15% and 23% and 10%, the “percent kill after 24 hours” value ([9]; GS 13005 alone 0.05 μg/fly) was 0% and the “percent kill after 24 hours” value ([9]; GS 13005 alone 0.10 μg/fly, 1440 min) was 19% and 16% and 12%.
